Assay results as given in ChEMBL document CHEMBL5120847, “Enceleamycins A-C, Furo-Naphthoquinones from Amycolatopsis sp. MCC0218: Isolation, Structure Elucidation, and Antimicrobial Activity” (2022).
In brackets after ≈: the same amount, converted by molar mass.

Columns and labels:
Type in all cases: functional
Micrococcus luteus = experiment: Antibacterial activity against Micrococcus luteus ATCC 9341 assessed as inhibition of visible bacterial growth incubated for 18 hrs by CLSI protocol based assay
Staphylococcus aureus [1] = experiment: Antibacterial activity against methicillin-resistant Staphylococcus aureus clinical isolate 10B assessed as inhibition of visible bacterial growth incubated for 18 hrs by CLSI protocol based assay
Staphylococcus aureus [2] = experiment: Antibacterial activity against Staphylococcus aureus ATCC 9144 assessed as inhibition of visible bacterial growth incubated for 18 hrs by CLSI protocol based assay
Bacillus subtilis = experiment: Antibacterial activity against Bacillus subtilis ATCC 6633 assessed as inhibition of visible bacterial growth incubated for 18 hrs by CLSI protocol based assay
Staphylococcus aureus [3] = experiment: Antibacterial activity against methicillin-resistant Staphylococcus aureus clinical isolate 3B assessed as inhibition of visible bacterial growth incubated for 18 hrs by CLSI protocol based assay
[4] = system: Staphylococcus epidermidis; experiment: Antibacterial activity against Staphylococcus epidermidis ATCC 12228 assessed as inhibition of visible bacterial growth incubated for 18 hrs by CLSI protocol based assay
Bacillus cereus = experiment: Antibacterial activity against Bacillus cereus ATCC 11778 assessed as inhibition of visible bacterial growth incubated for 18 hrs by CLSI protocol based assay
Staphylococcus aureus [5] = experiment: Antibacterial activity against methicillin-resistant Staphylococcus aureus clinical isolate 6B assessed as inhibition of visible bacterial growth incubated for 18 hrs by CLSI protocol based assay
[6] = system: Mycolicibacterium smegmatis; experiment: Antibacterial activity against Mycobacterium smegmatis ATCC 607 assessed as inhibition of visible bacterial growth incubated for 48 hrs by CLSI protocol based assay
Pseudomonas aeruginosa = experiment: Antibacterial activity against Pseudomonas aeruginosa ATCC 9027 assessed as inhibition of visible bacterial growth incubated for 18 hrs by CLSI protocol based assay
Listeria monocytogenes = experiment: Antibacterial activity against Listeria monocytogenes ATCC19111 assessed as inhibition of visible bacterial growth incubated for 18 hrs by CLSI protocol based assay
Escherichia coli = experiment: Antibacterial activity against Escherichia coli ATCC 8739 assessed as inhibition of visible bacterial growth incubated for 18 hrs by CLSI protocol based assay
Staphylococcus aureus [7] = experiment: Antibacterial activity against methicillin-resistant Staphylococcus aureus clinical isolate 9B assessed as inhibition of visible bacterial growth incubated for 18 hrs by CLSI protocol based assay

| Structure (SMILES) | MIC (Micrococcus luteus) | MIC (Staphylococcus aureus [1]) | MIC (Staphylococcus aureus [2]) | MIC (Bacillus subtilis) | MIC (Staphylococcus aureus [3]) | MIC [4] | MIC (Bacillus cereus) | MIC (Staphylococcus aureus [5]) | MIC [6] | MIC (Pseudomonas aeruginosa) | MIC (Listeria monocytogenes) | MIC (Escherichia coli) | MIC (Staphylococcus aureus [7]) |
| --- | --- | --- | --- | --- | --- | --- | --- | --- | --- | --- | --- | --- | --- |
| C[C@H]1O[C@]12[C@@H](O)O[C@H]1[C@]2(C)O[C@]2(O)C(=O)c3c(O)cccc3C(=O)[C@@]12O | > 128 mg/L | 128 mg/L (≈ 351 µM) | 128 mg/L (≈ 351 µM) | > 128 mg/L | > 128 mg/L | 64 mg/L (≈ 176 µM) | > 128 mg/L | > 128 mg/L | > 128 mg/L | > 128 mg/L | 128 mg/L (≈ 351 µM) | > 128 mg/L | > 128 mg/L |
| C[C@H]1O[C@@H]2O[C@@H]3C4C(=O)c5cccc(O)c5C(=O)C4O[C@]3(C)[C@@]21O (stereo partly specified) | 8 mg/L (≈ 24.1 µM) | 4 mg/L (≈ 12 µM) | 2 mg/L (≈ 6.02 µM) | 4 mg/L (≈ 12 µM) | 4 mg/L (≈ 12 µM) | 2 mg/L (≈ 6.02 µM) | 8 mg/L (≈ 24.1 µM) | 4 mg/L (≈ 12 µM) | 64 mg/L (≈ 193 µM) | > 128 mg/L | 2 mg/L (≈ 6.02 µM) | > 128 mg/L | 4 mg/L (≈ 12 µM) |
| C[C@H]1O[C@@H]2C3=C(O[C@]2(C)[C@@]1(O)C=O)C(=O)c1c(O)cccc1C3=O | 32 mg/L (≈ 96.9 µM) | 8 mg/L (≈ 24.2 µM) | 8 mg/L (≈ 24.2 µM) | 16 mg/L (≈ 48.4 µM) | 16 mg/L (≈ 48.4 µM) | 8 mg/L (≈ 24.2 µM) | 16 mg/L (≈ 48.4 µM) | 8 mg/L (≈ 24.2 µM) | 64 mg/L (≈ 194 µM) | > 128 mg/L | 8 mg/L (≈ 24.2 µM) | > 128 mg/L | 16 mg/L (≈ 48.4 µM) |
| CC1(C)S[C@@H]2[C@H](NC(=O)[C@H](N)c3ccccc3)C(=O)N2[C@H]1C(=O)O [AMPICILLIN] | 0.03 mg/L (≈ 0.0859 µM) | 4 mg/L (≈ 11.4 µM) | 0.03 mg/L (≈ 0.0859 µM) | 0.03 mg/L (≈ 0.0859 µM) | 8 mg/L (≈ 22.9 µM) | 1 mg/L (≈ 2.86 µM) | 16 mg/L (≈ 45.8 µM) | 8 mg/L (≈ 22.9 µM) | 64 mg/L (≈ 183 µM) | 2 mg/L (≈ 5.72 µM) | 0.03 mg/L (≈ 0.0859 µM) | – | – |
| NC[C@H]1O[C@H](O[C@H]2[C@H](O)[C@@H](O[C@H]3O[C@H](CO)[C@@H](O)[C@H](N)[C@H]3O)[C@H](N)C[C@@H]2N)[C@H](O)[C@@H](O)[C@@H]1O [KANAMYCIN] | 8 mg/L (≈ 16.5 µM) | > 128 mg/L | 8 mg/L (≈ 16.5 µM) | 0.5 mg/L (≈ 1.03 µM) | > 128 mg/L | 1 mg/L (≈ 2.06 µM) | 2 mg/L (≈ 4.13 µM) | > 128 mg/L | 0.25 mg/L (≈ 0.516 µM) | 8 mg/L (≈ 16.5 µM) | 1 mg/L (≈ 2.06 µM) | 8 mg/L (≈ 16.5 µM) | 128 mg/L (≈ 264 µM) |
| CC(C)Cc1nc([C@H](C)C(=O)O)c(C(C)C)n(O)c1=O | 64 mg/L (≈ 227 µM) | 128 mg/L (≈ 453 µM) | 128 mg/L (≈ 453 µM) | 128 mg/L (≈ 453 µM) | 128 mg/L (≈ 453 µM) | 64 mg/L (≈ 227 µM) | 128 mg/L (≈ 453 µM) | 128 mg/L (≈ 453 µM) | > 128 mg/L | > 128 mg/L | 128 mg/L (≈ 453 µM) | > 128 mg/L | 128 mg/L (≈ 453 µM) |
